Test results: ChEMBL document CHEMBL1136506, “Solid-phase synthesis of cyclic RGD-furanoid sugar amino acid peptides as integrin inhibitors” (Bioorg Med Chem Lett, 2003); call rule not given here
Numbered stars: 1 amine (or outer) side, 2 acyl side, 3 side chain; on linkers, the order of the positions; unused ones are H or OH. Square brackets hold non-standard residues; d marks the D form. Peptide text beside a SMILES is read from it. X1 = O=C(C[C@@H]1O[C@H](CN[*:1])[C@@H](O)[C@H]1O)[*:2]

Experiments:
[1] = target: T1, Integrin alpha-IIb/beta-3 (Homo sapiens, UniProt P05106+P08514); assay: Displacement of [125I]echistatin from alphaIIb-beta3 integrin of human platelets at 1 mM (Inactive)
T1 sequence (P05106 27-788 limits assumed): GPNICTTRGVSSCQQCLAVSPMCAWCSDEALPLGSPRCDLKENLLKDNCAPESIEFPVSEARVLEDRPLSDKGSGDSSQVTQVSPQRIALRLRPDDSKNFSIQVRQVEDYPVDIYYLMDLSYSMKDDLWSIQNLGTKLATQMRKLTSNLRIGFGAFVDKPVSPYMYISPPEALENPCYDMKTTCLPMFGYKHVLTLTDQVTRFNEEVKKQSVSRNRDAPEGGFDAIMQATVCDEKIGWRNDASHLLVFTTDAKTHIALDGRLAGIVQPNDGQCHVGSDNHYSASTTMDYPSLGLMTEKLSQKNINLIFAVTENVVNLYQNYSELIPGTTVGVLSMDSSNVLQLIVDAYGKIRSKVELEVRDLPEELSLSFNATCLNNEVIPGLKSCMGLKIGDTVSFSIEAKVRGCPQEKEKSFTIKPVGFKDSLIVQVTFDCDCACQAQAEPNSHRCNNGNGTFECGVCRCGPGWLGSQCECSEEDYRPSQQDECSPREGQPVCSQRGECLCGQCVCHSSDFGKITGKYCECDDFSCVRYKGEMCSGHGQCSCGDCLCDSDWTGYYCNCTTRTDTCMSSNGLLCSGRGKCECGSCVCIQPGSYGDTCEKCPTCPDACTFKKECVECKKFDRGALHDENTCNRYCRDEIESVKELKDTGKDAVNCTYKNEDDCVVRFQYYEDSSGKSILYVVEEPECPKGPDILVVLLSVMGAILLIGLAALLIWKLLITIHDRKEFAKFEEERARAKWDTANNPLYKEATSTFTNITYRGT
T1 sequence (P08514 32-887 limits assumed): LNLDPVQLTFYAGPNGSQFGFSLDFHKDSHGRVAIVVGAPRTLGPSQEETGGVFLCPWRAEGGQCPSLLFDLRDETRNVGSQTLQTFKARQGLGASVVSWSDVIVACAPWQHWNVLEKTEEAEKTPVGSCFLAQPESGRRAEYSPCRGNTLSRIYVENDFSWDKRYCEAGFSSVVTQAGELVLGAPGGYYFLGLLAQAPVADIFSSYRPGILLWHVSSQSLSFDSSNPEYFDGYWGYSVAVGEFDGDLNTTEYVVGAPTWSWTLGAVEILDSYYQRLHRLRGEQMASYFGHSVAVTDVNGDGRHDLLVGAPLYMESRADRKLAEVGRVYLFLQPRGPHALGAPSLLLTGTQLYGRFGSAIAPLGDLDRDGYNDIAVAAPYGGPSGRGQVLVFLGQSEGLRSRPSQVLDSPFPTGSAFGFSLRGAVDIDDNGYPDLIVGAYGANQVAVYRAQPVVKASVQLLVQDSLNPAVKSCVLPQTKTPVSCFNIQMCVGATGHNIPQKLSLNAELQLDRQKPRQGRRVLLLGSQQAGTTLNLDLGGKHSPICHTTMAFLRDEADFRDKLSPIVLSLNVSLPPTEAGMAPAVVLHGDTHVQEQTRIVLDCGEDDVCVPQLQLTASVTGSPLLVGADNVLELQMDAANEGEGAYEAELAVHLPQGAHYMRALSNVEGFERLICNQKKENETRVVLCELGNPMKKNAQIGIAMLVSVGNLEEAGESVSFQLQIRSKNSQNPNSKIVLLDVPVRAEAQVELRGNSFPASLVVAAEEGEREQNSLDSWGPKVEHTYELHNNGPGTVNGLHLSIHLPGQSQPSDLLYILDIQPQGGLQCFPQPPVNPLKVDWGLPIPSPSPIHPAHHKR
T1 sequence (P08514 891-1039 limits assumed): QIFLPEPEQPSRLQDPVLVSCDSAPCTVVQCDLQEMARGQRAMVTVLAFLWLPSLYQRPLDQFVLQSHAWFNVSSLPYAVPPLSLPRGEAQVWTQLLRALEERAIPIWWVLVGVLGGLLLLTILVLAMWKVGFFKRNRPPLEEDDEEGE

[2] = target: T2, Integrin alpha-V/beta-3 (Homo sapiens, UniProt P05106+P06756); assay: Displacement of [125I]-echistatin from alphaV-beta3 integrin of human skin fibroblasts at 1 mM (Inactive); type: protein-complex assay
T2 sequence (P05106 27-788 limits assumed): as the sequence (P05106 27-788 limits assumed) above
T2 sequence (P06756 31-889 limits assumed): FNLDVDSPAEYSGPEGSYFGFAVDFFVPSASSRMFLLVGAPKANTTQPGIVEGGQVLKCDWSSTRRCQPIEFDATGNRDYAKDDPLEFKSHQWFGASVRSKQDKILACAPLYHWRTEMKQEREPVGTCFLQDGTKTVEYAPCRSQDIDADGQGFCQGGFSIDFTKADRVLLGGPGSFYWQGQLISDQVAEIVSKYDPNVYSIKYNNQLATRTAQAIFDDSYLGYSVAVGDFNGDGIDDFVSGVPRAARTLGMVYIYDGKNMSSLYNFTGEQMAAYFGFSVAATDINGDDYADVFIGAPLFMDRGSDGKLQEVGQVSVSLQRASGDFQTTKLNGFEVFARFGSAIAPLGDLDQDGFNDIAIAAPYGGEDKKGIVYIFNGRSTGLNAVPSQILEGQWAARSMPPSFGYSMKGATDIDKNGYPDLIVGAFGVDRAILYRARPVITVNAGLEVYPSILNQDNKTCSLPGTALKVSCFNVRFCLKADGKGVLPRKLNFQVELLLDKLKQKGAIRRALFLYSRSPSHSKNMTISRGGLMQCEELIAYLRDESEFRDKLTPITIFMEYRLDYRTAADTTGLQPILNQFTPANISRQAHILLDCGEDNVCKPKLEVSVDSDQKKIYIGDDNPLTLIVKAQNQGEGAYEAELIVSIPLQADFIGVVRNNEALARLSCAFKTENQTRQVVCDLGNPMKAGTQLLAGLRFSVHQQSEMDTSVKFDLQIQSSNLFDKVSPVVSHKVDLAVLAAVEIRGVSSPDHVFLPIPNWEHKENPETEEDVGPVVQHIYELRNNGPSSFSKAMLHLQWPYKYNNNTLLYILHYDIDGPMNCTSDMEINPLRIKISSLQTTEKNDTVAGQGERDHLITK
T2 sequence (P06756 891-1048 limits assumed): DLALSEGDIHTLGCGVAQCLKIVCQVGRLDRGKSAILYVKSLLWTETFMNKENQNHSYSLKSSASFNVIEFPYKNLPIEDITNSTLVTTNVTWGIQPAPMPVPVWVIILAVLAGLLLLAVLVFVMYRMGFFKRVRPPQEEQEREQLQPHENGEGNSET

[3] = target: T1, Integrin alpha-IIb/beta-3; assay: Displacement of [125I]echistatin from alphaIIb-beta3 integrin of human platelets
[4] = target: T2, Integrin alpha-V/beta-3; assay: Displacement of [125I]echistatin from alphaV-beta3 integrin of human skin fibroblasts; type: protein-complex assay

In the case of `CC(C)[C@@H]1NC(=O)CNC(=O)C[C@@H]2O[C@H](CNC(=O)[C@H](CCCN=C(N)N)NC(=O)[C@H](CC(=O)O)NC1=O)[C@@H](O)[C@H]2O` (cyclo(DR[X1]GV)), the IC50 [1] is reported as “Not Active” and the IC50 [2] is reported as “Not Active”.

With `CC(C)[C@@H]1NC(=O)[C@H](CC(=O)O)NC(=O)CNC(=O)[C@H](CCCN=C(N)N)NC(=O)C[C@@H]2O[C@H](CNC1=O)[C@@H](O)[C@H]2O` (cyclo(RGDV[X1])) the IC50 [3] was 32.2 µM and the IC50 [4] was 98.1 µM.

Compound `N=C(N)NCCCC1NC(=O)C[C@@H]2O[C@H](CNC(=O)C[C@@H]3O[C@H](CNC(=O)C(CC(=O)O)NC(=O)CNC1=O)[C@@H](O)[C@H]3O)[C@@H](O)[C@H]2O` (stereo not given in full) has an IC50 [3] of 198 µM and an IC50 [4] of 597 µM.

For `N=C(N)NCCCC1NC(=O)C[C@@H]2O[C@H](CNC(=O)C(CC(=O)O)NC(=O)C[C@@H]3O[C@H](CNC1=O)[C@@H](O)[C@H]3O)[C@@H](O)[C@H]2O` (stereo not given in full), the IC50 [1] was “Not Active” and the IC50 [2] was “Not Active”.

Work on `N=C(N)NCCC[C@@H]1NC(=O)C[C@@H]2O[C@H](CNC(=O)[C@H](CC(=O)O)NC(=O)CNC1=O)[C@@H](O)[C@H]2O` yielded an IC50 [3] of 0.384 µM and an IC50 [4] of 1.49 µM.
